Patent US20220323406A1, “METHODS AND COMPOSITIONS FOR DIFFERENTIATING STEM CELLS” (Massachusetts Institute of Technology, priority 2019, published 2022)
Structures can show the parent of a compound that is named as a salt.

Assays:
[1] = tested on: ENR+CD organoids (ISC to Paneth cell differentiation); test: Primary screen: basal (non-stimulated) lysozyme secretion LYZ.NS, 2.5-D 384-well ENR+CD organoid differentiation; format: cell-based, mouse
Source text: (§1) High-throughput screening.

[2] = tested on: ENR+CD organoids (ISC to Paneth cell differentiation); test: Primary screen: CCh-stimulated lysozyme secretion LYZ.S, 2.5-D 384-well ENR+CD organoid differentiation; format: cell-based, mouse; details: primary screen
Source text: as §1

ENR+CD organoids = test: Primary screen: ATP (CellTiter-Glo 3D, CTG) cell number/viability, 2.5-D 384-well ENR+CD organoids;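 also: compounds given at plating and again on day 3 over a 6-day differentiation from ENR+CV stem-cell-enriched precursors, ATP measured on day 6, plate median as control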
[3] = primary screen, standard z score, dose 0.08 uM
[4] = primary screen, standard z score, dose 0.40 uM
[5] = primary screen, standard z score, dose 2.00 uM
[6] = primary screen, standard z score, dose 10.00 uM
[7] = primary screen, dose 0.08 uM, standard z score
[8] = primary screen, dose 0.40 uM, standard z score
[9] = primary screen, dose 2.00 uM, standard z score
[10] = primary screen, dose 10.00 uM, standard z score
[11] = primary screen; dose 0.08 uM; FC vs plate median
[12] = primary screen; dose 0.40 uM; FC vs plate median
[13] = primary screen; dose 2.00 uM; FC vs plate median
[14] = primary screen; dose 10.00 uM; FC vs plate median
[15] = primary screen, dose 0.08 uM, FC relative to plate median
[16] = primary screen, dose 0.40 uM, FC relative to plate median
[17] = primary screen, dose 2.00 uM, FC relative to plate median
[18] = primary screen, dose 10.00 uM, FC relative to plate median

Structure (SMILES)	Dose.FC.LYZ.NS ([1]; primary screen, dose 0.08 uM)	Z.LYZ.NS (standard z score) ([1]; primary screen, dose 0.08 uM)	Dose.FC.LYZ.NS ([1]; primary screen, dose 0.40 uM)	Z.LYZ.NS (standard z score) ([1]; primary screen, dose 0.40 uM)	Dose.FC.LYZ.NS ([1]; primary screen, dose 2.00 uM)	Z.LYZ.NS (standard z score) ([1]; primary screen, dose 2.00 uM)	Dose.FC.LYZ.NS ([1]; primary screen, dose 10.00 uM)	Z.LYZ.NS (standard z score) ([1]; primary screen, dose 10.00 uM)	Dose.FC.LYZ.S ([2]; dose 0.08 uM)	Dose.FC.LYZ.S ([2]; dose 0.40 uM)	Dose.FC.LYZ.S ([2]; dose 2.00 uM)	Dose.FC.LYZ.S ([2]; dose 10.00 uM)	Dose.FC.CTG (ENR+CD organoids; primary screen, dose 0.08 uM)	Z.CTG (standard z score) (ENR+CD organoids; primary screen, dose 0.08 uM)	Dose.FC.CTG (ENR+CD organoids; primary screen, dose 0.40 uM)	Z.CTG (standard z score) (ENR+CD organoids; primary screen, dose 0.40 uM)	Dose.FC.CTG (ENR+CD organoids; primary screen, dose 2.00 uM)	Z.CTG (standard z score) (ENR+CD organoids; primary screen, dose 2.00 uM)	Dose.FC.CTG (ENR+CD organoids; primary screen, dose 10.00 uM)	Z.CTG (standard z score) (ENR+CD organoids; primary screen, dose 10.00 uM)	further results
CCCCNc1ncc(-c2ccc(CN3CCOCC3)cn2)c(NC2CCC(O)CC2)n1 (stereo not shown) [UNC2250]	0.115 log2 fold change	1.005	0.067 log2 fold change	0.587	0.085 log2 fold change	0.744	−0.153 log2 fold change	−1.336	0.142 log2 fold change	0.113 log2 fold change	0.134 log2 fold change	−0.205 log2 fold change	0.265 log2 fold change	0.633	0.279 log2 fold change	0.667	0.105 log2 fold change	0.250	−0.064 log2 fold change	−0.153	–
CC(C)NC[C@@H](C(=O)N1CCN(c2ncnc3c2[C@H](C)C[C@H]3O)CC1)c1ccc(Cl)cc1 [GDC-0068]	0.036 log2 fold change	–	0.054 log2 fold change	–	−0.077 log2 fold change	–	−0.185 log2 fold change	–	0.076 log2 fold change	0.087 log2 fold change	−0.059 log2 fold change	−0.319 log2 fold change	0.042 log2 fold change	–	0.118 log2 fold change	–	0.184 log2 fold change	–	−0.100 log2 fold change	–	Z.LYZ.NS [1, 3]: 0.311; Z.LYZ.NS [1, 4]: 0.469; Z.LYZ.NS [1, 5]: −0.675; Z.LYZ.NS [1, 6]: −1.613; Z.CTG (ENR+CD organoids; [3]): 0.099; Z.CTG (ENR+CD organoids; [4]): 0.283; Z.CTG (ENR+CD organoids; [5]): 0.439; Z.CTG (ENR+CD organoids; [6]): −0.238
CC(C)C[C@H](NC(=O)[C@@H](NC(=O)c1cccc(-c2ccccc2)n1)[C@@H](C)O)B(O)O [CEP-18770 (Delanzomib)]	−0.108 log2 fold change	–	−0.076 log2 fold change	–	−0.063 log2 fold change	–	−0.035 log2 fold change	–	−0.179 log2 fold change	−0.159 log2 fold change	−0.180 log2 fold change	−0.149 log2 fold change	−0.953 log2 fold change	–	−1.642 log2 fold change	–	−0.990 log2 fold change	–	−1.148 log2 fold change	–	Z.LYZ.NS [1, 3]: −0.937; Z.LYZ.NS [1, 4]: −0.664; Z.LYZ.NS [1, 5]: −0.546; Z.LYZ.NS [1, 6]: −0.308; Z.CTG (ENR+CD organoids; [3]): −2.276; Z.CTG (ENR+CD organoids; [4]): −3.923; Z.CTG (ENR+CD organoids; [5]): −2.364; Z.CTG (ENR+CD organoids; [6]): −2.742
CS(=O)(=O)c1cccc(CNc2nc(Nc3ccc4c(c3)CCC(=O)N4)ncc2C(F)(F)F)c1 [PF-573228]	–	–	–	–	–	–	–	–	–	–	–	–	–	–	–	–	–	–	–	–	Z.LYZ.NS [1, 7]: 0.089; Z.LYZ.NS [1, 8]: −0.401; Z.LYZ.NS [1, 9]: −0.502; Z.LYZ.NS [1, 10]: −2.180; Dose.FC.LYZ.NS [1, 11]: 0.010 log2 fold change; Dose.FC.LYZ.NS [1, 12]: −0.046 log2 fold change; Dose.FC.LYZ.NS [1, 13]: −0.058 log2 fold change; Dose.FC.LYZ.NS [1, 14]: −0.250 log2 fold change; Dose.FC.LYZ.S ([2]; dose 0.08 uM, FC vs plate median): 0.114 log2 fold change; Dose.FC.LYZ.S ([2]; dose 0.40 uM, FC vs plate median): 0.002 log2 fold change; Dose.FC.LYZ.S ([2]; dose 2.00 uM, FC vs plate median): −0.174 log2 fold change; Dose.FC.LYZ.S ([2]; dose 10.00 uM, FC vs plate median): −0.305 log2 fold change; Z.CTG (ENR+CD organoids; [7]): 0.183; Z.CTG (ENR+CD organoids; [8]): −0.129; Z.CTG (ENR+CD organoids; [9]): −1.037; Z.CTG (ENR+CD organoids; [10]): −1.188; Dose.FC.CTG (ENR+CD organoids; [11]): 0.077 log2 fold change; Dose.FC.CTG (ENR+CD organoids; [12]): −0.054 log2 fold change; Dose.FC.CTG (ENR+CD organoids; [13]): −0.434 log2 fold change; Dose.FC.CTG (ENR+CD organoids; [14]): −0.497 log2 fold change
COc1cc2c(Nc3ccc(NC(=O)c4ccccc4)cc3)ncnc2cc1OCCCN1CCOCC1 [ZM 447439]	0.103 log2 fold change	0.896	0.107 log2 fold change	0.932	0.052 log2 fold change	0.456	−0.080 log2 fold change	−0.695	0.171 log2 fold change	0.108 log2 fold change	0.074 log2 fold change	−0.132 log2 fold change	0.512 log2 fold change	1.222	0.304 log2 fold change	0.725	0.231 log2 fold change	0.552	−0.240 log2 fold change	−0.574	–
NC(=O)c1cccc(-c2cc(Nc3ccc(OC(F)(F)F)cc3)ncn2)c1 [GNF-2]	–	1.386	–	−0.206	–	0.102	–	−0.286	–	–	–	–	–	0.376	–	0.214	–	0.176	–	0.240	Dose.FC.LYZ.NS (log2 fold change) ([1]; primary screen, dose 0.08 uM): 0.159; Dose.FC.LYZ.NS (log2 fold change) ([1]; primary screen, dose 0.40 uM): −0.024; Dose.FC.LYZ.NS (log2 fold change) ([1]; primary screen, dose 2.00 uM): 0.012; Dose.FC.LYZ.NS (log2 fold change) ([1]; primary screen, dose 10.00 uM): −0.033; Dose.FC.LYZ.S (log2 fold change) ([2]; dose 0.08 uM): 0.121; Dose.FC.LYZ.S (log2 fold change) ([2]; dose 0.40 uM): 0.001; Dose.FC.LYZ.S (log2 fold change) ([2]; dose 2.00 uM): 0.046; Dose.FC.LYZ.S (log2 fold change) ([2]; dose 10.00 uM): −0.015; Dose.FC.CTG (log2 fold change) (ENR+CD organoids; primary screen, dose 0.08 uM): 0.157; Dose.FC.CTG (log2 fold change) (ENR+CD organoids; primary screen, dose 0.40 uM): 0.090; Dose.FC.CTG (log2 fold change) (ENR+CD organoids; primary screen, dose 2.00 uM): 0.074; Dose.FC.CTG (log2 fold change) (ENR+CD organoids; primary screen, dose 10.00 uM): 0.100
C#CCN[C@@H]1CCc2ccccc21 [Rasagiline Mesylate]	–	–	–	–	–	–	–	–	–	–	–	–	–	–	–	–	–	–	–	–	Dose.FC.LYZ.NS [1, 15]: 0.072 log2 fold change; Z.LYZ.NS [1, 7]: 0.631; Dose.FC.LYZ.NS [1, 16]: 0.013 log2 fold change; Z.LYZ.NS [1, 8]: 0.117; Dose.FC.LYZ.NS [1, 17]: 0.048 log2 fold change; Z.LYZ.NS [1, 9]: 0.417; Dose.FC.LYZ.NS [1, 18]: −0.034 log2 fold change; Z.LYZ.NS [1, 10]: −0.294; Dose.FC.LYZ.S ([2]; dose 0.08 uM, FC relative to plate median): 0.140 log2 fold change; Dose.FC.LYZ.S ([2]; dose 0.40 uM, FC relative to plate median): 0.077 log2 fold change; Dose.FC.LYZ.S ([2]; dose 2.00 uM, FC relative to plate median): 0.014 log2 fold change; Dose.FC.LYZ.S ([2]; dose 10.00 uM, FC relative to plate median): 0.026 log2 fold change; Dose.FC.CTG (ENR+CD organoids; [15]): 0.154 log2 fold change; Dose.FC.CTG (ENR+CD organoids; [16]): 0.103 log2 fold change; Dose.FC.CTG (ENR+CD organoids; [17]): 0.041 log2 fold change; Dose.FC.CTG (ENR+CD organoids; [18]): 0.104 log2 fold change
Cc1cc([C@@H](C)Nc2ccccc2C(=O)O)c2nc(N3CCOCC3)cc(=O)n2c1 [AZD6482]	0.108 log2 fold change	0.944	0.076 log2 fold change	0.660	−0.130 log2 fold change	−1.129	−0.248 log2 fold change	−2.160	0.182 log2 fold change	0.156 log2 fold change	−0.114 log2 fold change	−0.253 log2 fold change	0.240 log2 fold change	0.572	0.223 log2 fold change	0.533	−0.509 log2 fold change	−1.215	−1.203 log2 fold change	−2.874	–
Cl.Cl.Cl.O[C@@H](COc1cccc2ncccc12)CN1CCN([C@@H]2c3ccccc3[C@@H]3[C@H](c4ccccc42)C3(F)F)CC1 [Zosuquidar (LY335979) 3HCl]	0.096 log2 fold change	0.839	0.080 log2 fold change	0.696	0.207 log2 fold change	1.802	−0.209 log2 fold change	−1.821	0.124 log2 fold change	0.127 log2 fold change	0.129 log2 fold change	−0.200 log2 fold change	0.017 log2 fold change	0.041	0.197 log2 fold change	0.470	0.276 log2 fold change	0.659	−0.193 log2 fold change	−0.461	–
CC(C)(C)c1cc(/C=C(\C#N)C(N)=S)cc(C(C)(C)C)c1O [Tyrphostin AG 879]	0.010 log2 fold change	0.088	−0.078 log2 fold change	−0.680	−0.080 log2 fold change	−0.698	−0.110 log2 fold change	−0.960	−0.083 log2 fold change	−0.084 log2 fold change	−0.051 log2 fold change	−0.123 log2 fold change	−0.347 log2 fold change	−0.828	−0.238 log2 fold change	−0.569	−0.232 log2 fold change	−0.554	−0.368 log2 fold change	−0.879	–
